The source of these data is ChEMBL document CHEMBL1150086, “New steroid acids from Antrodia cinnamomea, a fungal parasite of Cinnamomum micranthum” (J Nat Prod, 1995).

Values after ≈ are worked out from the molar mass of the structure shown.

The subject of this test is P388. In words: Cytotoxicity against mouse P388 cells after 72 hrs. Format: functional, cell-based. Particulars: P388, 72 h.
As for `CO[C@H](C(=O)[C@@H](O)[C@@H](C)O)[C@@H]1Cc2cc3cc(O[C@H]4C[C@@H](O[C@@H]5C[C@@H](O)[C@H](O)[C@@H](C)O5)[C@H](O)[C@@H](C)O4)c(C)c(O)c3c(O)c2C(=O)[C@H]1O[C@H]1C[C@@H](O[C@@H]2C[C@@H](O)[C@@H](O[C@@H]3C[C@](C)(O)[C@H](O)[C@@H](C)O3)[C@@H](C)O2)[C@H](O)[C@@H](C)O1` [PLICAMYCIN], inhibition was half-maximal at 0.06 µg/mL (≈ 0.0553 µM) (IC50).
`C=C(CC[C@@H](C)[C@H]1CC[C@H]2C3=C(C(=O)C[C@]12C)[C@@]1(C)CCC(=O)[C@@H](C)[C@@H]1CC3=O)C(C)C(=O)O` (stereo partly drawn) [ZHANKUIC ACID A] showed an IC50 of 1.8 µg/mL (≈ 3.84 µM).
Next, `C=C(CC[C@@H](C)[C@H]1CC[C@H]2C3=C(C(=O)[C@H](O)[C@]12C)[C@@]1(C)CC[C@@H](O)[C@@H](C)[C@@H]1CC3=O)C(C)C(=O)O` (stereo partly drawn) [ZHANKUIC ACID C]: 5.4 µg/mL (≈ 11.1 µM).
